Assay results as given in patent publication US11040028B2, “Penicinotam derivative, preparation method and use thereof” (OCEAN UNIVERSITY OF CHINA, priority 2017, dated 2021).

What was measured:
Type in all cases: cell-based
[1] = test system: cardiac fibroblast RAT-iCell-C002; assay: Anti-fibrosis activity test: inhibition of proliferation of cardiac fibroblast RAT-iCell-C002 (CCK-8); conditions: Cardiac fibroblast, 48 h, cardiac fibroblast RAT-iCell-C002, CCK-8, 48 hours
Summary of the method: (§1)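 Proliferation read by CCK-8 (2 h, A450) after 48 h compound treatment of cells plated at 2×10^4 cells/mL and allowed 24 h attachment, triplicate per concentration. Inhibition rate derived from absorbance relative to untreated blank, with IC50 fitted; pirfenidone as positive control.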

[2] = test system: human embryonic lung fibroblast IMR-90; assay: Anti-fibrosis activity test: inhibition of proliferation of human embryonic lung fibroblast IMR-90 (CCK-8); conditions: human embryonic lung fibroblast IMR-90, CCK-8, 48 hours
Summary of the method: as §1

[3] = test system: human hepatic stellate cells LX-2; assay: Anti-fibrosis activity test: inhibition of proliferation of human hepatic stellate cells LX-2 (CCK-8); conditions: Homo sapiens, 48 h, human hepatic stellate cells LX-2, CCK-8, 48 hours
Summary of the method: as §1

[4] = test system: human lung fibroblasts HFL1; assay: Anti-fibrosis activity test: inhibition of proliferation of human lung fibroblasts HFL1 (CCK-8); conditions: Homo sapiens, HFL1, 48 h, human lung fibroblasts HFL1, CCK-8, 48 hours
Summary of the method: as §1

[5] = test system: human fibrosarcoma cells HT-1080; assay: Anti-fibrosis activity test: inhibition of proliferation of human fibrosarcoma cells HT-1080 (CCK-8); conditions: Homo sapiens, HT-1080, 48 h, human fibrosarcoma cells HT-1080, CCK-8, 48 hours
Summary of the method: as §1

[6] = test system: BHK-21 cells; assay: Anti-fibrosis activity test: inhibition of BHK-21 cell proliferation (CCK-8); conditions: Mesocricetus auratus, BHK-21, 48 h, CCK-8, 48 hours after administration
Summary of the method: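 Cells plated 2×10^4 cells/mL; 24 h attach; compound dilutions, triplicate, 48 h, 37° C/5% CO2; CCK-8 2 h; A450; IR = (1−Ai/Ao)×100%; IC50 by curve fit.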

[7] = test system: NF-κB; assay: Immunological activity test: inhibition of NF-κB activity; conditions: initial concentration of 30 μM; a/b isomers given as first/second symbol; read-out: IC50 (μM), inhibitory activity against NF-κB
Text: Main references for immunological activity test of the compounds of the present application includes: Vogl, S.; Atanasov, A. G.; Binder, M.; Bulusu, M.; Zehl, M.; Fakhrudin, N.; Heiss, E. H.; Picker, P.; Wawrosch, C.; Saukel, J.; Reznicek, G.; Urban, E.; Bochkov, V.; Dirsch, V. M.; Kopp, B. J. Evid-Based Complementary Alern. Med. 2013, ID 395316. Commercially available parthenolide was utilized as a positive control.
The ability of the compounds of the present application to inhibit NF-κB activity was tested at an initial concentration of 30 μM.
The assay data for the compounds of the present application were further analyzed to determine their IC50 values.

[8] = test system: human dermal fibroblasts CCC-ESF-1; assay: Anti-fibrosis activity test: inhibition of proliferation of human dermal fibroblasts CCC-ESF-1 (CCK-8); conditions: Fibroblast; human dermal fibroblasts CCC-ESF-1, CCK-8, 48 hours
Summary of the method: as §1

| SMILES | IC50 [1] [mM] | IC50 [2] [mM] | IC50 [3] [mM] | IC50 [4] [mM] | IC50 [5] [mM] | IC50 [6] [mM] | IC50 [7] [µM] | IC50 [8] [mM] |
| --- | --- | --- | --- | --- | --- | --- | --- | --- |
| O=C1c2c(nc3ccccc3c2Oc2ccc(Br)cc2)-c2cccn21 [Compound 64b, 9-(4-bromophenoxy)-10H-pyrrolizino[1,2-b]quinolin-10-one] | 0.05 to 5 | 0.05 to 5 | 0.05 to 5 | 0.05 to 5 | 0.05 to 5 | 0.05 to 5 | 1 to 10 | 0.05 to 5 |
| O=C1c2c(n(Cc3ccc(C(F)(F)F)cc3)c3ccc(F)cc3c2=O)-c2cccn21 [Compound 620a, 7-Fluoro-4-(4-(trifluoromethyl)benzyl)-9H-pyrrolizino[1,2-b]quinoline-9,10(4H)-dione] | 0.05 to 5 | 0.05 to 5 | 0.05 to 5 | 0.05 to 5 | 0.05 to 5 | < 0.05 | 1 to 10 | 5 to 20 |
| O=C1c2c(n(Cc3ccc(Cl)cc3)c3cc(C(F)(F)F)ccc3c2=O)-c2cccn21 [Compound 544a, 4-(4-Chlorobenzyl)-6-(trifluoromethyl)-9H-pyrrolizino[1,2-b]quinoline-9,10(4H)-dione] | 0.05 to 5 | 0.05 to 5 | 0.05 to 5 | 0.05 to 5 | 0.05 to 5 | < 0.05 | 10 to 50 | 0.05 to 5 |
| CC(C)=CCOc1c2c(nc3ccccc13)-c1cccn1C2=O [Compound 9b, 9-((3-methylbut-2-en-1-yl)oxy)-10H-pyrrolizino[1,2-b]quinolin-10-one] | 0.05 to 5 | 0.05 to 5 | 0.05 to 5 | 0.05 to 5 | 0.05 to 5 | 5 to 20 | 1 to 10 | 5 to 20 |
| O=C1c2c(nc3cc(C(F)(F)F)ccc3c2OCc2ccccc2Cl)-c2cccn21 [Compound 546b, 9-((2-chlorobenzyl)oxy)-6-(trifluoromethyl)-10H-pyrrolizino[1,2-b]quinolin-10-one] | 0.05 to 5 | 0.05 to 5 | 0.05 to 5 | 0.05 to 5 | 0.05 to 5 | 0.05 to 5 | 0.1 to 1 | 0.05 to 5 |
| O=C1c2c(n(Cc3cc(C(F)(F)F)cc(C(F)(F)F)c3)c3ccc(F)cc3c2=O)-c2cccn21 [Compound 623a, 4-(3,5-Bis(trifluoromethyl)benzyl)-7-fluoro-9H-pyrrolizino[1,2-b]quinoline-9,10(4H)-dione] | 0.05 to 5 | 0.05 to 5 | 0.05 to 5 | 0.05 to 5 | 0.05 to 5 | < 0.05 | 1 to 10 | < 0.05 |
| O=C1c2c(nc3ccc(F)cc3c2OCc2ccc(Cl)cc2)-c2cccn21 [Compound 618b, 9-((4-chlorobenzyl)oxy)-7-fluoro-10H-pyrrolizino[1,2-b]quinolin-10-one] | 0.05 to 5 | 0.05 to 5 | 0.05 to 5 | 0.05 to 5 | 0.05 to 5 | 0.05 to 5 | 1 to 10 | 0.05 to 5 |
| O=C1c2c(nc3cc(C(F)(F)F)ccc3c2OCc2cccc(Cl)c2)-c2cccn21 [Compound 545b, 9-((3-chlorobenzyl)oxy)-6-(trifluoromethyl)-10H-pyrrolizino[1,2-b]quinolin-10-one] | 0.05 to 5 | 0.05 to 5 | 0.05 to 5 | 0.05 to 5 | 0.05 to 5 | 0.05 to 5 | 1 to 10 | 0.05 to 5 |
| O=C1c2c(n(-c3ccc(F)cc3)c3ccccc3c2=O)-c2cccn21 [Compound 18a, 4-(4-Fluorophenyl)-9H-pyrrolizino[1,2-b]quinoline-9,10(4H)-dione] | 0.05 to 5 | 0.05 to 5 | 5 to 20 | 0.05 to 5 | 0.05 to 5 | < 0.05 | 0.1 to 1 | 0.05 to 5 |
| O=C1c2c(nc3ccc(F)cc3c2OCc2cc(C(F)(F)F)cc(C(F)(F)F)c2)-c2cccn21 [Compound 623b, 9-((3,5-bis(trifluoromethyl)benzyl)oxy)-7-fluoro-10H-pyrrolizino[1,2-b]quinolin-10-one] | 0.05 to 5 | 0.05 to 5 | 0.05 to 5 | 0.05 to 5 | 0.05 to 5 | 0.05 to 5 | 1 to 10 | 0.05 to 5 |
